Test results as given in the NIST ThermoML archive (doi:10.1016/j.fluid.2013.02.005).
Numbers after ± are expanded uncertainties.

Legend:
[1] = Boiling temperature at pressure P; conditions: 101.33 kPa; Liquid; Ebulliometric method (Recirculating still)
[2] = for surface tension liquid-gas: Maximal bubble pressure; for mass density: 298.15 K, 101.33 kPa, Vibrating tube method; for mass density / vapor or sublimation pressure: Liquid; for vapor or sublimation pressure: Ebulliometric method (Recirculating still)
[3] = refractive index (Na D-line) (dimensionless); conditions: 298.15 K; 101.33 kPa; Liquid; Standard Abbe refractometry
[4] = xn = mol fraction of the nth substance listed; conditions: Maximal bubble pressure

Cc1ccc(C)o1 [2,5-dimethylfuran]
Boiling temperature at pressure P [1]: 93.68 ± 0.02 °C
surface tension liquid-gas ([2]; 283.15 K): 26.34 ± 0.2 mN/m
mass density [2]: 895.63 ± 0.08 kg/m3
surface tension liquid-gas ([2]; 303.15 K): 24.05 ± 0.19 mN/m
surface tension liquid-gas ([2]; 330.15 K): 20.58 ± 0.17 mN/m
vapor or sublimation pressure ([2]; 345.24 K): 50 ± 0.3 kPa
vapor or sublimation pressure ([2]; 357.21 K): 75 ± 0.6 kPa
vapor or sublimation pressure ([2]; 364.37 K): 94 ± 0.7 kPa
refractive index [3]: 1.44012 ± 0.00035

Cc1ccc(C)o1 [2,5-dimethylfuran] + CC(C)OC(C)C
surface tension liquid-gas ([4]; 283.15 K, x2 = 0): 26.34 ± 0.2 mN/m
surface tension liquid-gas ([4]; 283.15 K, x2 = 0.067): 24.79 ± 0.2 mN/m
surface tension liquid-gas ([4]; 283.15 K, x2 = 0.112): 24.27 ± 0.19 mN/m
surface tension liquid-gas ([4]; 283.15 K, x2 = 0.234): 23.31 ± 0.19 mN/m
surface tension liquid-gas ([4]; 283.15 K, x2 = 0.323): 22.56 ± 0.18 mN/m
surface tension liquid-gas ([4]; 283.15 K, x2 = 0.42): 21.87 ± 0.18 mN/m
surface tension liquid-gas ([4]; 283.15 K, x2 = 0.52): 21.31 ± 0.18 mN/m
surface tension liquid-gas ([4]; 283.15 K, x2 = 0.626): 20.86 ± 0.18 mN/m
surface tension liquid-gas ([4]; 330.15 K, x2 = 0): 20.58 ± 0.17 mN/m
surface tension liquid-gas ([4]; 330.15 K, x2 = 0.153): 19.28 ± 0.17 mN/m
surface tension liquid-gas ([4]; 330.15 K, x2 = 0.192): 18.93 ± 0.17 mN/m
surface tension liquid-gas ([4]; 330.15 K, x2 = 0.245): 18.31 ± 0.16 mN/m
surface tension liquid-gas ([4]; 330.15 K, x2 = 0.342): 17.66 ± 0.16 mN/m
surface tension liquid-gas ([4]; 330.15 K, x2 = 0.434): 17.01 ± 0.16 mN/m
surface tension liquid-gas ([4]; 330.15 K, x2 = 0.543): 16.48 ± 0.15 mN/m
surface tension liquid-gas ([4]; 330.15 K, x2 = 0.664): 15.79 ± 0.15 mN/m
surface tension liquid-gas ([4]; 330.15 K, x2 = 0.782): 15.16 ± 0.15 mN/m
surface tension liquid-gas ([4]; 330.15 K, x2 = 0.897): 14.65 ± 0.15 mN/m

CC(C)OC(C)C [diisopropyl ether] + Cc1ccc(C)o1
surface tension liquid-gas ([4]; 283.15 K, x1 = 1): 18.88 ± 0.17 mN/m
surface tension liquid-gas ([4]; 330.15 K, x1 = 1): 13.88 ± 0.14 mN/m

CC(C)OC(C)C [diisopropyl ether]
Boiling temperature at pressure P [1]: 68.52 ± 0.02 °C
surface tension liquid-gas ([2]; 283.15 K): 18.88 ± 0.17 mN/m
mass density [2]: 718.75 ± 0.14 kg/m3
surface tension liquid-gas ([2]; 303.15 K): 16.7 ± 0.16 mN/m
vapor or sublimation pressure ([2]; 307.64 K): 30.01 ± 0.08 kPa
vapor or sublimation pressure ([2]; 311.53 K): 35.01 ± 0.08 kPa
vapor or sublimation pressure ([2]; 314.98 K): 40.01 ± 0.09 kPa
vapor or sublimation pressure ([2]; 318.08 K): 45.01 ± 0.09 kPa
vapor or sublimation pressure ([2]; 320.94 K): 50.01 ± 0.1 kPa
vapor or sublimation pressure ([2]; 321.03 K): 50 ± 0.3 kPa
vapor or sublimation pressure ([2]; 323.56 K): 55.01 ± 0.1 kPa
vapor or sublimation pressure ([2]; 326 K): 60.01 ± 0.1 kPa
vapor or sublimation pressure ([2]; 328.29 K): 65.01 ± 0.11 kPa
surface tension liquid-gas ([2]; 330.15 K): 13.88 ± 0.14 mN/m
vapor or sublimation pressure ([2]; 330.45 K): 70.01 ± 0.11 kPa
vapor or sublimation pressure ([2]; 332.48 K): 75.01 ± 0.12 kPa
vapor or sublimation pressure ([2]; 332.65 K): 75 ± 0.5 kPa
vapor or sublimation pressure ([2]; 334.41 K): 80.01 ± 0.12 kPa
vapor or sublimation pressure ([2]; 336.23 K): 85.01 ± 0.13 kPa
vapor or sublimation pressure ([2]; 339.57 K): 94 ± 0.7 kPa
vapor or sublimation pressure ([2]; 339.65 K): 95.01 ± 0.14 kPa
vapor or sublimation pressure ([2]; 341.52 K): 100.89 ± 0.14 kPa
refractive index [3]: 1.36652 ± 0.00035
